# Data as given in ChEMBL document CHEMBL5465560, “Selectivity Literature for EUbOPEN Chemogenomic Library” (2024).
# Experiments:
# [1] = target: T1, Tyrosine-protein kinase JAK3 (Homo sapiens) (UniProt P52333); experiment: Selectivity interaction (KinomeScan (DiscoverX)) EUB0001049a JAK3; conditions: at 1 µM
# T1 sequence (whole entry): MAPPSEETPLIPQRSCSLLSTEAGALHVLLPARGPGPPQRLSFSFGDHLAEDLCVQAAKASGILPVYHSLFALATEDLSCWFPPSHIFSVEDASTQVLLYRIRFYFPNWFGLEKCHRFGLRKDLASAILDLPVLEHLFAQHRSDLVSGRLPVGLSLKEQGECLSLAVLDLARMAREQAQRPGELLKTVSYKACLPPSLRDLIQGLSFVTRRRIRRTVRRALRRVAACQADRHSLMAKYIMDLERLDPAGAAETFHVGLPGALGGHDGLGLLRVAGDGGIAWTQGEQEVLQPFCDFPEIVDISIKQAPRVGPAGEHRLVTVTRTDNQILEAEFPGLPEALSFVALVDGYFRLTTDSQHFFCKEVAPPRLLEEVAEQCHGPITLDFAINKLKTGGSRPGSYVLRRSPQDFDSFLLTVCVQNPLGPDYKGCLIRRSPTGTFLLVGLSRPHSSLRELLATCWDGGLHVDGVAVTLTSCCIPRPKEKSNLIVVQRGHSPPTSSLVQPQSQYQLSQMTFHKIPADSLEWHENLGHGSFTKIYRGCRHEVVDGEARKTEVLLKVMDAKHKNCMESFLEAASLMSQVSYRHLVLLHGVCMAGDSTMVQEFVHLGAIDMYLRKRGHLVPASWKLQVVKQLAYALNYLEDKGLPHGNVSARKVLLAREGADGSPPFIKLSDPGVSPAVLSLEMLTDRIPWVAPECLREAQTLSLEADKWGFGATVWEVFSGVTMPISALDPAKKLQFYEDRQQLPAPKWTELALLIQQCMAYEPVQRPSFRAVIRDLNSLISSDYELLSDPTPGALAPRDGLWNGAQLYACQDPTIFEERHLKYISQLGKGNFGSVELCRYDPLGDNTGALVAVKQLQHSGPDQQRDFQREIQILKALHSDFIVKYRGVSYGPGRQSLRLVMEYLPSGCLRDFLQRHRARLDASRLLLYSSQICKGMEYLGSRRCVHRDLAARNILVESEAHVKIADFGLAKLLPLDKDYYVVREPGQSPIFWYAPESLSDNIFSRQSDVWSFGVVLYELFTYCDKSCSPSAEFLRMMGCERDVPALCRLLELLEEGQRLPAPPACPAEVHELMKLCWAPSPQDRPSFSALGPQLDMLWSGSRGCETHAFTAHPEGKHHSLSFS
# [2] = target: Homeodomain-interacting protein kinase 3 (Homo sapiens, UniProt Q9H422); experiment: Selectivity interaction (KinomeScan (DiscoverX)) EUB0000229b HIPK3; conditions: at 10 µM
# Sequence of Homeodomain-interacting protein kinase 3 (Q9H422 whole entry, looked up): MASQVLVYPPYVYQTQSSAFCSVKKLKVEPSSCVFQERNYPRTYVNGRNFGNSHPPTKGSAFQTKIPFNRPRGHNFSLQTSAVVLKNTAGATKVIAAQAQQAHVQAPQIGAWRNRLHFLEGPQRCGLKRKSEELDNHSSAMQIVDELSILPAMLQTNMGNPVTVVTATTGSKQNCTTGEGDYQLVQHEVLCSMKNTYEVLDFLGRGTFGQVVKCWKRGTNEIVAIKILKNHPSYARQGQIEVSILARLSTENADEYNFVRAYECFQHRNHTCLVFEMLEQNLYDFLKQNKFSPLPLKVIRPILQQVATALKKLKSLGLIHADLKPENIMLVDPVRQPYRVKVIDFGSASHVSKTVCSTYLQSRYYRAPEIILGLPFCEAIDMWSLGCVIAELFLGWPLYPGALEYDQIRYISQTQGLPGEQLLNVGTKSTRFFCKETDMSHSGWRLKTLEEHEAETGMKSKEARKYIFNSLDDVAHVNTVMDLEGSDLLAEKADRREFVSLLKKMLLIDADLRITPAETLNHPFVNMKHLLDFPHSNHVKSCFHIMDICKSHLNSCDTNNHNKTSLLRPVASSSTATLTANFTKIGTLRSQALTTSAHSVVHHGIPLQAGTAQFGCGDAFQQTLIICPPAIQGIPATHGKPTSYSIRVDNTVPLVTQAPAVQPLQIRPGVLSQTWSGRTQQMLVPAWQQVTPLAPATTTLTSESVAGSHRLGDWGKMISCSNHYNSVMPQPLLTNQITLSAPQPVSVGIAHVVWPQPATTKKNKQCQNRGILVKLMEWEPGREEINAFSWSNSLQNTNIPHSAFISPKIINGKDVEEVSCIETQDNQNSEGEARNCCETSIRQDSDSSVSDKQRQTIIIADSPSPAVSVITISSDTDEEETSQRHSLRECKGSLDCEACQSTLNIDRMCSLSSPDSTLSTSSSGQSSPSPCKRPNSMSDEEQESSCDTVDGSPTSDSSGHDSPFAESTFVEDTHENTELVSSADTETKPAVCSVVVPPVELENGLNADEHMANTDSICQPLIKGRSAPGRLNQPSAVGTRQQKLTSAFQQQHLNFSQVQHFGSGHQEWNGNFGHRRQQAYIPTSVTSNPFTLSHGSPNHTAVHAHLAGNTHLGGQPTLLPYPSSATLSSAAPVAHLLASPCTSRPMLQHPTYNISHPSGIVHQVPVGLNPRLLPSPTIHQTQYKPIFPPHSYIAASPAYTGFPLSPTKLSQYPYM
# [3] = target: T2, Mitogen-activated protein kinase kinase kinase kinase 3 (Homo sapiens) (UniProt Q8IVH8); experiment: Selectivity interaction (KinomeScan (DiscoverX)) EUB0000045b MAP4K3
# T2 sequence (whole entry): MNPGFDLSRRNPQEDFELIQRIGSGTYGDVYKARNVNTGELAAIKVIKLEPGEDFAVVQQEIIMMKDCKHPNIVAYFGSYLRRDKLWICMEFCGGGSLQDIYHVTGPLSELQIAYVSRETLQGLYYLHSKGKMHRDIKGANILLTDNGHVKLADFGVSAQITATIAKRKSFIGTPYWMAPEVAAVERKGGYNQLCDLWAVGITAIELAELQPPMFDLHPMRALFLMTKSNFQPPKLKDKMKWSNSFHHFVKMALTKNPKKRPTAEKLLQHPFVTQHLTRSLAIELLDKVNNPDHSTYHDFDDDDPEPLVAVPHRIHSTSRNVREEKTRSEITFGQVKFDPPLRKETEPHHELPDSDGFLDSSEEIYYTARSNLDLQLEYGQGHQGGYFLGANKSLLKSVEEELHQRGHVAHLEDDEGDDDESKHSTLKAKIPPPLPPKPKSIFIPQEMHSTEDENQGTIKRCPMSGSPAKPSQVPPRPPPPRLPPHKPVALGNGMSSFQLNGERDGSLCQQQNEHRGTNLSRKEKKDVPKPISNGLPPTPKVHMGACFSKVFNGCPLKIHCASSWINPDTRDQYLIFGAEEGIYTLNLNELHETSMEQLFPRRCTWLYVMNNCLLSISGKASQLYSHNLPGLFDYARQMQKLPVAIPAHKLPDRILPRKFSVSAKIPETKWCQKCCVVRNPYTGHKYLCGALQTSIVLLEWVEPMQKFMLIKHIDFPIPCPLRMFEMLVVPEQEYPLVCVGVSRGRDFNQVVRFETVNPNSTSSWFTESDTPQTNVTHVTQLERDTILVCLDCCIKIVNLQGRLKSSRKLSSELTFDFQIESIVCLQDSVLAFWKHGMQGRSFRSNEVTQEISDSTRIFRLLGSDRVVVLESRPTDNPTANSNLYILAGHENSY
# [4] = target: Tyrosine-protein kinase Lyn (Homo sapiens, UniProt P07948)
# Sequence of Tyrosine-protein kinase Lyn (P07948 whole entry): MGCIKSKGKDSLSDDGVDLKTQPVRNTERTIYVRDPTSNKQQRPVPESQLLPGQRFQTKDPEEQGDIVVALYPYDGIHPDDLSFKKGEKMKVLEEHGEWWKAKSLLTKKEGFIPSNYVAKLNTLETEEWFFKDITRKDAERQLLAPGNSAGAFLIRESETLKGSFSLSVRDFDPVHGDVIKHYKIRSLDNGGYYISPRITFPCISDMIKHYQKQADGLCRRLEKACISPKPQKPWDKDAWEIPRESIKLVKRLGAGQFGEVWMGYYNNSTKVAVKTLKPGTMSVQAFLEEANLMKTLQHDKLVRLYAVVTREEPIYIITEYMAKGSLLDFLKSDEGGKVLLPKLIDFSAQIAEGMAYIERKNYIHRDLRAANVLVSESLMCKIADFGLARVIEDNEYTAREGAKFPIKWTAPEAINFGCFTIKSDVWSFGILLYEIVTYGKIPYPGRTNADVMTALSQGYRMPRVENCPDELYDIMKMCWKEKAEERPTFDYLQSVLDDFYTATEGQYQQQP
# [5] = target: Serine/threonine-protein kinase 32B (Homo sapiens) (UniProt Q9NY57); experiment: Selectivity interaction (KinomeScan (DiscoverX)) EUB0001619a STK32B; conditions: at 1 µM
# Sequence of Serine/threonine-protein kinase 32B (Homo sapiens) (Q9NY57 whole entry): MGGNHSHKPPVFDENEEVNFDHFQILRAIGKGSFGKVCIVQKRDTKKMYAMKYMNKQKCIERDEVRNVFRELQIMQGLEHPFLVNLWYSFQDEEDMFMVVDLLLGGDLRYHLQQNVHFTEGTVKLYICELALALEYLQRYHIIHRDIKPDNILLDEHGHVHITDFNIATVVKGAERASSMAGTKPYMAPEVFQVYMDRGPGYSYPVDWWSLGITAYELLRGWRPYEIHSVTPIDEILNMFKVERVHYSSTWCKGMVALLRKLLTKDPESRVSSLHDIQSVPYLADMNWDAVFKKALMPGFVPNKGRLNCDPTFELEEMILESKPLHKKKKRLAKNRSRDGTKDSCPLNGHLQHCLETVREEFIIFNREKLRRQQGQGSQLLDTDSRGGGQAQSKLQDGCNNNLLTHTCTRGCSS
# [6] = target: RAC-beta serine/threonine-protein kinase (Homo sapiens) (UniProt P31751); experiment: Selectivity interaction (SelectScreen profiling (Invitrogen)) EUB0000607a AKT2; conditions: at 2 µM
# Sequence of RAC-beta serine/threonine-protein kinase (Homo sapiens) (P31751 whole entry): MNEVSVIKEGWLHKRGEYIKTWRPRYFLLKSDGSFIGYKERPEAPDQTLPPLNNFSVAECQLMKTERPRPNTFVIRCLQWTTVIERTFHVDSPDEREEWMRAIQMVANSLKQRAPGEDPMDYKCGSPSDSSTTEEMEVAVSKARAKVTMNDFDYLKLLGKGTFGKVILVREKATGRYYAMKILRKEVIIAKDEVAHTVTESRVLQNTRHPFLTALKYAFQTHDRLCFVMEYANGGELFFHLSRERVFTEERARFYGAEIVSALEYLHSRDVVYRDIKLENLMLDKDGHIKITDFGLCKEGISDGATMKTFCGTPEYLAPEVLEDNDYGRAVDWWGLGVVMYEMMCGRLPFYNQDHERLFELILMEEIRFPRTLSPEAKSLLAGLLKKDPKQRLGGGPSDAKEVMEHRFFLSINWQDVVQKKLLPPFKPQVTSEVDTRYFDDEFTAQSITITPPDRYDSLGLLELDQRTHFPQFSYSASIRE
# [7] = target: T3, cGMP-dependent protein kinase 1 (Homo sapiens) (UniProt Q13976); experiment: Selectivity interaction (SelectScreen profiling (Invitrogen)) EUB0000607a PRKG1; conditions: at 2 µM
# T3 sequence (whole entry): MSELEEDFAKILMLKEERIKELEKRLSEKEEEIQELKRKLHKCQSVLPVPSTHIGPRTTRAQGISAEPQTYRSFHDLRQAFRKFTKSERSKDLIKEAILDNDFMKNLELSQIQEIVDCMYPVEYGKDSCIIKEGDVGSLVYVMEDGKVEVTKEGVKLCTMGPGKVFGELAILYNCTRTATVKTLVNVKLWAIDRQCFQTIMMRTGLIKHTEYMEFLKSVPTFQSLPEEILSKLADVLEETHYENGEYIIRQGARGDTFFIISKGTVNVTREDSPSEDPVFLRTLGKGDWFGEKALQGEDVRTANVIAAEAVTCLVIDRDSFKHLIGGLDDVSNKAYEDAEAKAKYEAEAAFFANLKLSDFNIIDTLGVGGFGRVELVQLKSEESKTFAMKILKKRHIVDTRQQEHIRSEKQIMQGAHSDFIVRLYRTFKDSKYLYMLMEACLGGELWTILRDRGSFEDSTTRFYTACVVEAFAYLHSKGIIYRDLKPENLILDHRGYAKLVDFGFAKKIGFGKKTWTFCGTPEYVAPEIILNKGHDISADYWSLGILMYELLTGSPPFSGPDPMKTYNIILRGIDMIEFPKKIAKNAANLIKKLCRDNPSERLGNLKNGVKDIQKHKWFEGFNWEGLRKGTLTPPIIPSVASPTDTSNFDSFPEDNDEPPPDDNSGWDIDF
smiles,measurement,setting,value
COc1cc(Nc2nc(C)cc(-c3cnn4nc(OC)ccc34)n2)cc(C(F)(F)F)c1,% of control,[1],93%
COc1cc(N(C)c2ccnc3ccc(C(F)(F)F)cc23)cc(OC)c1OC,% binding,[2],81%
C=CC(=O)Nc1cc(-n2c(=O)ccc3cnc4ccc(-c5ccc(NS(C)(=O)=O)cc5)cc4c32)ccc1C,% of control,[3]; at 1 µM,100%
same,% of control,[3]; at 10 µM,100%
CCc1cccc(CC)c1NC(=O)c1nn(C)c2c1CCc1cnc(Nc3ccc(C(=O)NC4CCN(C)CC4)cc3OC(F)(F)F)nc1-2,IC50,[4],> 10 µM
N#Cc1cccc(-c2c[nH]c3ncnc(N4CCOCC4)c23)c1,% of control,[5],53%
CNC(=O)Nc1ccc(-c2nc(N3CC4CCC(C3)O4)c3cnn(C4CCC5(CC4)OCCO5)c3n2)cc1,% of inhibition,[6],5%
same,% of inhibition,[7],1%
